# According to patent US10724100B2, “Systems and methods for treating patients having a genetic predisposition to develop prostate cancer” (Institute for Cancer Research, priority 2015, dated 2020):
# Test system: peripheral blood lymphocytes (PBLs) of prostate cancer patients and matched controls
# Assay: γH2AX foci immunofluorescence in PHA/IL-2-stimulated peripheral blood lymphocytes after DNA damaging agents
# Type: cell-based, human
# Conditions: PBLs from 9 patients and 10 age- and gender-matched controls; 10 μM aphidicolin or 25 μM etoposide; fixed 2 hours later; p=0.0337 (aphidicolin), p=0.007 (etoposide)
# Protocol: Peripheral blood lymphocytes (PBLs) were available from 9/12 of the exome sequenced patients and 10 age-matched and gender-matched individuals without a cancer diagnosis or a family history of cancer. […] For analysis of DDR, cells were cultured in RPMI-1640 containing 15% fetal bovine serum (HyClone Laboratories, Logan, Utah), 2 mM L-glutamine (Life Technologies, Grand Island, N.Y.), 50 μM 2-mercaptoethanol (Sigma-Aldrich, St. Louis, Mo.), 0.2 units human recombinant insulin (Sigma) per ml, 50 units penicillin and 50 mg streptomycin per ml (complete RPMI), and then stimulated with phytohemagglutinin (PHA)-M (Life Technologies, Grand Island, N.Y.) and recombinant human interleukin 2 (IL-2) (NCI Preclinical Repository) for 72 hours. […] For immunofluorescence, cells were allowed to attach to poly-d-lysine-coated 96-well plates, stained with anti-γH2AX antibody (#05-636, Millipore, Temecula, Calif.). Sixteen images per well were acquired at 20× (with each image acquired in 2 channels to detect γH2AX with TRITC and total DNA with DAPI) utilizing the ImageXpress micro automated microscope (Molecular Devices, Sunnyvale, Calif.) driven by MetaXpress software. […]
smiles,measurement,value
C[C@@]1(CO)[C@H](O)CC[C@@]2(C)[C@H]1CC[C@H]1C[C@@H]3C[C@@]12CC[C@]3(O)CO [aphidicolin],"γH2AX induction (nuclear γH2AX foci per cell), cases versus controls",higher magnitude of induction seen in prostate cancer patients
